Values joined by “and” are separate entries in the source; they are usually repeats but may differ in a detail not shown here. Identical values can stand only once. Like-named read-outs stand apart in the source and are kept apart here.
Conditions: 20 minutes
[1] = Experiment #1, active (A1, A2, A3): 4% lidocaine solution, 1 mA
[2] = Experiment #1, passive (P1, P2, P3): 4% lidocaine solution, no current
[3] = Experiment #2, active (A1, A2, A3): 4% lidocaine solution, 1 mA

## CCN(CC)CC(=O)Nc1c(C)cccc1C [lidocaine]
[1]
  Total μg in tissue: 604.6 µg and 600.2 µg and 494.6 µg
  μg/mL of lidocaine: 120.9 µg/mL and 120.0 µg/mL and 98.9 µg/mL
[2]
  Total μg in tissue: 131.8 µg and 95.5 µg and 172.1 µg
  μg/mL of lidocaine: 26.4 µg/mL and 19.1 µg/mL and 34.4 µg/mL
[3]
  Total μg/g in tissue: 702.3 µg/g and 808.2 µg/g and 781.1 µg/g
  μg/mL of lidocaine: 140.5 µg/mL and 161.6 µg/mL and 156.2 µg/mL
